From the Kinase Knowledgebase extract (Sharma et al. 2016)

Target: MAPK14 (human) (UniProt Q16539)
Assay: Inhibition of MAPK14 Kinase Activity by PHAS-I Assay
Details: for inhibition: concentration not given here

Chain of MAPK14 (human) (Q16539 whole entry, looked up): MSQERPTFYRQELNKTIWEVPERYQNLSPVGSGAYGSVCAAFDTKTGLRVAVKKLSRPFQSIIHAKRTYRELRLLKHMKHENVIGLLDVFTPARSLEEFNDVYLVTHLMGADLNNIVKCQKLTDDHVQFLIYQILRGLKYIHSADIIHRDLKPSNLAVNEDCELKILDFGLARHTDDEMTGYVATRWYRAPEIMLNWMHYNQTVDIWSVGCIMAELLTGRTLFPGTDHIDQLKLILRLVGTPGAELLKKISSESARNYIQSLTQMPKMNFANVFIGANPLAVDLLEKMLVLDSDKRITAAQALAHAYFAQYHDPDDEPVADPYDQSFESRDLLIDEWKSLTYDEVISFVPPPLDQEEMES

| SMILES | inhibition | IC50 |
| --- | --- | --- |
| Cc1c(-c2ccncc2)c(-c2ccc(F)cc2)nn1CC(=O)NC1CCCc2ccccc21 (centres undefined) | 76% | – |
| O=C(Nc1ccccc1)N[C@@H](Cc1ccccc1)c1[nH]nc(-c2ccc(F)cc2)c1-c1ccncc1 | – | 2600 nM |
| CC(C)(N)Cc1[nH]nc(-c2ccc(F)cc2)c1-c1ccncc1 | – | 110 nM |
| Cc1c(-c2ccncc2)c(-c2ccc(F)cc2)nn1CC(=O)N(C)CCc1ccncc1 | 38% | – |
| CCS(=O)(=O)NCCCc1[nH]nc(-c2ccc(F)cc2)c1-c1ccncc1 | 95% | – |
| CC(C)S(=O)(=O)NCCCc1[nH]nc(-c2ccc(F)cc2)c1-c1ccncc1 | 84% | – |
| CCCCCCCOc1ccc(NC(=O)Cn2nc(-c3ccc(F)cc3)c(-c3ccncc3)c2C)cc1 | 89% | – |
| CC(C)COC(=O)NCCCc1[nH]nc(-c2ccc(F)cc2)c1-c1ccncc1 | 76% | – |
| CCOC(=O)CN(Cc1ccccn1)C(=O)Cn1nc(-c2ccc(F)cc2)c(-c2ccncc2)c1C | 34% | – |
| COC(=O)[C@@H](Cc1cn(C)cn1)NC(=O)Cn1nc(-c2ccc(F)cc2)c(-c2ccncc2)c1C | 19% | – |
| Cc1c(-c2ccncc2)c(-c2ccc(F)cc2)nn1CC(=O)Nc1ccccc1C(F)(F)F | 86% | – |
| O=C(NCCCc1[nH]nc(-c2ccc(F)cc2)c1-c1ccncc1)c1cccc(Br)c1 | 70% | – |
| Cc1c(-c2ccncc2)c(-c2ccc(F)cc2)nn1CC(=O)N(Cc1ccco1)CC(C)C | 48% | – |
| Cc1c(-c2ccncc2)c(-c2ccc(F)cc2)nn1CC(=O)Nc1ccccc1C(C)C | 94% | – |
| Cc1c(-c2ccncc2)c(-c2ccc(F)cc2)nn1CC(=O)NC1CCCCC1C1CCCCC1 (centres undefined) | 45% | – |
| Cc1c(-c2ccncc2)c(-c2ccc(F)cc2)nn1CC(=O)Nc1ccccc1Cc1ccccc1 | 92% | – |
| O=C(NCCCc1[nH]nc(-c2ccc(F)cc2)c1-c1ccncc1)Nc1ccccc1 | 81% | – |
| NC(=O)NCCCc1[nH]nc(-c2ccc(F)cc2)c1-c1ccncc1 | 90% | – |
| O=C(NCCCc1[nH]nc(-c2ccc(F)cc2)c1-c1ccncc1)N1CCOCC1 | 82% | – |
| CCCC(CCC)NC(=O)Cn1nc(-c2ccc(F)cc2)c(-c2ccncc2)c1C | 77% | – |
| COc1cccc(C(=O)N[C@@H](C)c2[nH]nc(-c3ccc(F)cc3)c2-c2ccncc2)c1 | – | 1370 nM |
| Clc1ccc(-c2n[nH]c(N3CCSCC3)c2-c2ccncc2)cc1 | – | 770 nM |
| COc1ccc(S(=O)(=O)NCCCc2[nH]nc(-c3ccc(F)cc3)c2-c2ccncc2)cc1OC | 74% | – |

| SMILES | inhibition | IC50 |
| --- | --- | --- |
| O=C(NCCCc1[nH]nc(-c2ccc(F)cc2)c1-c1ccncc1)NCc1ccccc1 | 82% | – |
| CCOC(=O)N1CCC(NC(=O)Cn2nc(-c3ccc(F)cc3)c(-c3ccncc3)c2C)CC1 | 72% | – |
| CC(=O)Nc1ccc(S(=O)(=O)NCc2[nH]nc(-c3ccc(F)cc3)c2-c2ccncc2)cc1 | 66% | – |
| COCCN(C)C(=O)Cn1nc(-c2ccc(F)cc2)c(-c2ccncc2)c1C | 35% | – |
| Cc1cccc(C)c1NC(=O)NCCCc1[nH]nc(-c2ccc(F)cc2)c1-c1ccncc1 | 88% | – |
| Cc1cccc(C)c1NC(=O)NCCc1[nH]nc(-c2ccc(F)cc2)c1-c1ccncc1 | 56% | – |
| Cc1c(-c2ccncc2)c(-c2ccc(F)cc2)nn1CC(=O)Nc1ccccc1C(=O)NC1CCCCC1 | 87% | – |
| O=C(Cc1cccs1)NCCCc1[nH]nc(-c2ccc(F)cc2)c1-c1ccncc1 | 90% | – |
| Cc1c(-c2ccncc2)c(-c2ccc(F)cc2)nn1CC(=O)Nc1cccc(Br)c1 | 88% | – |
| COc1ccc(NC(=O)NCCCc2[nH]nc(-c3ccc(F)cc3)c2-c2ccncc2)c(OC)c1 | 83% | – |
| CNC(=O)NCCCc1[nH]nc(-c2ccc(F)cc2)c1-c1ccncc1 | 84% | – |
| CS(=O)(=O)NCCCc1[nH]nc(-c2ccc(F)cc2)c1-c1ccncc1 | 84% | – |
| Cc1c(-c2ccncc2)c(-c2ccc(F)cc2)nn1CC(=O)N(CCc1ccccc1)CCc1ccccn1 | 43% | – |
| CCCCS(=O)(=O)NCCCc1[nH]nc(-c2ccc(F)cc2)c1-c1ccncc1 | 87% | – |
| CC(C)NC(=O)NCCCc1[nH]nc(-c2ccc(F)cc2)c1-c1ccncc1 | 81% | – |
| O=S(=O)(NCc1[nH]nc(-c2ccc(F)cc2)c1-c1ccncc1)c1ccc2ccccc2c1 | – | 280 nM |
| CCCCNS(=O)(=O)c1cccc(NC(=O)Cn2nc(-c3ccc(F)cc3)c(-c3ccncc3)c2C)c1 | 77% | – |
| CCN(CC)C(=O)NCCCc1[nH]nc(-c2ccc(F)cc2)c1-c1ccncc1 | 89% | – |
| Cc1c(-c2ccncc2)c(-c2ccc(F)cc2)nn1CC(=O)NC1CCCCC1 | 49% | – |
| COc1ccc(-c2[nH]nc(C)c2-c2ccncc2)cc1Cl | – | 100 nM |
| Cc1c(-c2ccncc2)c(-c2ccc(F)cc2)nn1CC(=O)NCC(=O)Nc1ccccc1 | 86% | – |
| O=S(=O)(NCCCc1[nH]nc(-c2ccc(F)cc2)c1-c1ccncc1)c1cccs1 | 84% | – |
| Cc1c(-c2ccncc2)c(-c2ccc(F)cc2)nn1CC(=O)Nc1ccccc1C(=O)OC(C)C | 88% | – |

| SMILES | inhibition | IC50 |
| --- | --- | --- |
| Cc1c(-c2ccncc2)c(-c2ccc(F)cc2)nn1CC(=O)NC(Cc1ccccc1)c1ccccc1 (centres undefined) | 44% | – |
| CN(C)C(=O)NCCCc1[nH]nc(-c2ccc(F)cc2)c1-c1ccncc1 | 90% | – |
| COc1ccc2nc(NC(=O)Cn3nc(-c4ccc(F)cc4)c(-c4ccncc4)c3C)sc2c1 | 86% | – |
| O=C(NCCCc1[nH]nc(-c2ccc(F)cc2)c1-c1ccncc1)Nc1ccccc1F | 86% | – |
| Cc1c(-c2ccncc2)c(-c2ccc(F)cc2)nn1CC(=O)NC1CCSC1=O (centres undefined) | 69% | – |
| COC(=O)[C@H](CC(C)C)NC(=O)Cn1nc(-c2ccc(F)cc2)c(-c2ccncc2)c1C | 47% | – |
| CCCOC(=O)NCCCc1[nH]nc(-c2ccc(F)cc2)c1-c1ccncc1 | 90% | – |
| O=C(NCc1[nH]nc(-c2ccc(F)cc2)c1-c1ccncc1)c1cccc2ccccc12 | 91% | – |
| CCOC(=O)NCCCc1[nH]nc(-c2ccc(F)cc2)c1-c1ccncc1 | 94% | – |
| O=C(NCCCc1[nH]nc(-c2ccc(F)cc2)c1-c1ccncc1)c1ccc(F)cc1 | 64% | – |
| Cc1cccc(NC(=O)Cn2nc(-c3ccc(F)cc3)c(-c3ccncc3)c2C)c1 | 86% | – |
| O=C(NCCCc1[nH]nc(-c2ccc(F)cc2)c1-c1ccncc1)N1CCCC1 | 86% | – |
| Cc1c(-c2ccncc2)c(-c2ccc(F)cc2)nn1CC(=O)Nc1cccc(SC(F)(F)F)c1 | 82% | – |
| O=C(NCCCc1[nH]nc(-c2ccc(F)cc2)c1-c1ccncc1)c1cnc2ccccc2n1 | 68% | – |
| O=C(NCCCc1[nH]nc(-c2ccc(F)cc2)c1-c1ccncc1)c1ccc(F)c(F)c1F | 80% | – |
| CCCNC(=O)NCCCc1[nH]nc(-c2ccc(F)cc2)c1-c1ccncc1 | 88% | – |
| CSc1ccccc1NC(=O)Cn1nc(-c2ccc(F)cc2)c(-c2ccncc2)c1C | 82% | – |
| CCNC(=O)NCCCc1[nH]nc(-c2ccc(F)cc2)c1-c1ccncc1 | 89% | – |
| Cc1c(-c2ccncc2)c(-c2ccc(F)cc2)nn1CC(=O)Nc1ccc(OCCOc2ccccc2)cc1 | 75% | – |
| Cc1c(-c2ccncc2)c(-c2ccc(F)cc2)nn1CC(=O)N1Cc2ccsc2CC1c1ccc(Cl)cc1 (centres undefined) | 33% | – |
| Cc1c(-c2ccncc2)c(-c2ccc(F)cc2)nn1CC(=O)Nc1ccc(-n2ccc(C(F)(F)F)n2)cc1 | 87% | – |
| O=C(NCCCc1[nH]nc(-c2ccc(F)cc2)c1-c1ccncc1)c1ccncc1 | 77% | – |
| O=C(NCCCc1[nH]nc(-c2ccc(F)cc2)c1-c1ccncc1)Nc1ccc(F)cc1 | 88% | – |
